Experiment: recombinant UMI read abundance after kanamycin selection (control-corrected) (log10(CPM+1)); higher = more efficient recombination; extreme values may be limits of the assay; sequences stand for … in AGTGCAGAGAAAATCGGCCAGTTTTCTCTGCCTGCAGTCCGCATGCCGTGGGACCCCTTGGGTTCTAACCTGTTGCCTAGATTTATGCAGCGGACTGCCTTTCTCCCAAAGTGATAAACCGG…AGGTTGGTTTCACT; site = the 11-nt donor
Outline: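 Values, expressed as log10(CPM+1), derive from recombinant UMI counts converted to CPM, averaged across replicates and scaled by control-derived factors. Plating was with IPTG (0.07 mM) plus kanamycin or unselected, two replicates each. The screen pooled donor and donor-binding-loop pairs for the IS621 bridge recombinase in Escherichia coli.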
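Also: IS621 bridge recombinase in Escherichia coli cells against a fixed T5 target plasmid.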

Sequence	recombinant UMI read abundance (log10)
ACCTAGACATGGACCGGTTTTCCCGGTAATCCGTATTTGGG (site ACCTAGCCTCC)	0.0119
ACCTAGACATGGACCGGTTTTCCCGGTAATCCGTATTTGGG (site ACCTAGGCTCC)	0.0977
ACCTAGACATGGACCGGTTTTCCCGGTAATCCGTATTTGGG (site ACCTAGTCTCC)	0.0195
ACCTAGACATGGACCGGTTTTCCCGGTAATCCGTATTTGGG (site ACCTATACTCC)	0.333
ACCTAGACATGGACCGGTTTTCCCGGTAATCCGTATTTGGG (site ACCTCGACTCC)	0.00246
ACCTAGACATGGACCGGTTTTCCCGGTAATCCGTATTTGGG (site ACCTGGACTCC)	0.0143
ACCTAGACATGGACCGGTTTTCCCGGTAATCCGTATTTGGG (site ACCTTGACTCC)	0.0253
ACCTAGACATGGACCGGTTTTCCCGGTAATCCGTATTTGGG (site ACGTAGACTCC)	0.0154
ACCTAGACATGGACCGGTTTTCCCGGTAATCCGTATTTGGG (site ACTTAGACTCC)	0.0151
ACCTAGACATGGACCGGTTTTCCCGGTAATCCGTATTTGGG (site AGCTAGACTCC)	0.0336
ACCTAGACATGGACCGGTTTTCCCGGTAATCCGTATTTGGG (site ATCTAGACTCC)	0.015
ACCTAGACATGGACCGGTTTTCCCGGTAATCCGTATTTGGG (site CCCTAGACTCC)	0.00828
ACCTAGACATGGACCGGTTTTCCCGGTAATCCGTATTTGGG (site GCCTAGACTCC)	0.00312
ACCTAGACATGGACCGGTTTTCCCGGTAATCCGTATTTGGG (site TCCTAGACTCC)	0.0161
ACCTAGCCATGGACCGGTTTTCCCGGTAATCCGTATTTGCC (site ACCTAGCCTGG)	0
ACCTAGCCATGGACCGGTTTTCCCGGTAATCCGTATTTGCC (site CCCTAGCCTGG)	0

Sequence	recombinant UMI read abundance (log10)
ACCTAGCCATGGACCGGTTTTCCCGGTAATCCGTATTTGCC (site GCCTAGCCTGG)	0
ACCTAGCCATGGACCGGTTTTCCCGGTAATCCGTATTTGCC (site TCCTAGCCTGG)	0
ACCTAGGCATGGACCGGTTTTCCCGGTAATCCGTATTTGGG (site ACCTAGACTCC)	0.00318
ACCTAGGCATGGACCGGTTTTCCCGGTAATCCGTATTTGGG (site ACCTAGCCTCC)	0.0364
ACCTAGGCATGGACCGGTTTTCCCGGTAATCCGTATTTGGG (site ACCTAGGCTCC)	0.0121
ACCTAGGCATGGACCGGTTTTCCCGGTAATCCGTATTTGGG (site ACCTAGTCTCC)	0.0121
ACCTCGACATGGACCGGTTTTCCCGGTAATCCGTATTTGGG (site ACCTAGACTCC)	0.0526
ACCTCGACATGGACCGGTTTTCCCGGTAATCCGTATTTGGG (site ACCTCGACTCC)	0.00574
ACCTCGACATGGACCGGTTTTCCCGGTAATCCGTATTTGGG (site ACCTGGACTCC)	0.0333
ACCTCGACATGGACCGGTTTTCCCGGTAATCCGTATTTGGG (site ACCTTGACTCC)	0
ACCTCTACATGGACCGGTTTTCCCGGTAATCCGTATTTGTG (site ACATCTACTCA)	0.014
ACCTCTACATGGACCGGTTTTCCCGGTAATCCGTATTTGTG (site ACCTCTACTCA)	0.0203
ACCTCTACATGGACCGGTTTTCCCGGTAATCCGTATTTGTG (site ACGTCTACTCA)	0.0131
ACCTCTACATGGACCGGTTTTCCCGGTAATCCGTATTTGTG (site ACTTCTACTCA)	0.0231
ACCTGGACATGGACCGGTTTTCCCGGTAATCCGTATTTGGG (site ACCTAGACTCC)	0.00306
ACCTGGACATGGACCGGTTTTCCCGGTAATCCGTATTTGGG (site ACCTCGACTCC)	0.00694
